Measurements reported in PubChem BioAssay AID334 (DTP/NCI, 2004).
Values joined by “and” are separate entries in the source; they are usually repeats but may differ in a detail not shown here. Equal values may be shown once. Toxic doses and inconclusive results are not listed.

Test system: CD2F1 mice, intracerebral P388 leukemia, median survival T/C%
Experiment: NCI In Vivo Anticancer Drug Screen. Data for tumor model P388 Leukemia (intracerebral) in CD2F1 (CDF1) mice
Details: endpoint: median survival time, higher = longer survival
Protocol: The antitumor activity of compounds was measured in mice bearing transplantable tumors. Survival or tumor size were measured and the results are expressed as the measurement made in the treated group (T) divided by the measurement made in the vehicle treated control group (C). The tumor model used in this assay is P388 Leukemia (intracerebral) in CD2F1 (CDF1) mice

[1] = dose: 8.0 mg/kg/injection, schedule: Q01DX009 (ip), vehicle: saline with Tween-80
[2] = dose: 16.0 mg/kg/injection, schedule: Q01DX009 (ip), vehicle: saline with Tween-80
[3] = dose: 32.0 mg/kg/injection, schedule: Q01DX009 (ip), vehicle: saline with Tween-80
[4] = dose: 64.0 mg/kg/injection, schedule: Q01DX009 (ip), vehicle: saline with Tween-80
[5] = dose: 128.0 mg/kg/injection, schedule: Q01DX009 (ip), vehicle: saline with Tween-80
[6] = dose: 4.0 mg/kg/injection, schedule: Q01DX009 (ip), vehicle: saline with Tween-80
[7] = dose: 6.25 mg/kg/injection, schedule: Q01DX009 (ip), vehicle: saline
[8] = dose: 12.5 mg/kg/injection, schedule: Q01DX009 (ip), vehicle: saline
[9] = dose: 25.0 mg/kg/injection, schedule: Q01DX009 (ip), vehicle: saline
[10] = dose: 50.0 mg/kg/injection, schedule: Q01DX009 (ip), vehicle: saline

## CC(=O)O[C@H]1C(=O)[C@@]2(C)[C@H]([C@H](OC(=O)c3ccccc3)[C@]3(O)C[C@H](OC(=O)[C@H](O)[C@@H](NC(=O)c4ccccc4)c4ccccc4)C(C)=C1C3(C)C)[C@]1(OC(C)=O)CO[C@@H]1C[C@@H]2O
dose: 2.5 mg/kg/injection, schedule: Q01DX009 (ip), vehicle: Klucel (hydroxypropylcellulose) (HPC)
  T/C: 100 % of control
dose: 5.0 mg/kg/injection, schedule: Q01DX009 (ip), vehicle: Klucel (hydroxypropylcellulose) (HPC)
  T/C: 103 % of control
dose: 10.0 mg/kg/injection, schedule: Q01DX009 (ip), vehicle: Klucel (hydroxypropylcellulose) (HPC)
  T/C: 96 % of control
dose: 20.0 mg/kg/injection, schedule: Q01DX009 (ip), vehicle: Klucel (hydroxypropylcellulose) (HPC)
  T/C: 86 % of control

## CCCCCCOC(=O)C(N)Cc1ccc(N(CCCl)CCCl)cc1 (centres undefined)
dose: 1.6 mg/kg/injection, schedule: Q03HX008 (ip), vehicle: saline
  T/C: 105 % of control
dose: 3.2 mg/kg/injection, schedule: Q03HX008 (ip), vehicle: saline
  T/C: 115 % of control
dose: 6.4 mg/kg/injection, schedule: Q03HX008 (ip), vehicle: saline
  T/C: 110 % of control

## C[C@]12C=CC(=O)C=C1CC[C@@H]1[C@@H]2CC[C@]2(C)OC(=O)CC[C@@H]12
dose: 8.0 mg/kg/injection, schedule: Q01DX009 (ip), vehicle: Klucel (hydroxypropylcellulose) (HPC)
  T/C: 105 % of control and 111 % of control
[1]
  T/C: 95 % of control and 105 % of control
dose: 16.0 mg/kg/injection, schedule: Q01DX009 (ip), vehicle: Klucel (hydroxypropylcellulose) (HPC)
  T/C: 100 % of control and 103 % of control
[2]
  T/C: 104 % of control and 105 % of control
dose: 32.0 mg/kg/injection, schedule: Q01DX009 (ip), vehicle: Klucel (hydroxypropylcellulose) (HPC)
  T/C: 114 % of control and 102 % of control
[3]
  T/C: 97 % of control and 104 % of control
dose: 64.0 mg/kg/injection, schedule: Q01DX009 (ip), vehicle: Klucel (hydroxypropylcellulose) (HPC)
  T/C: 100 % of control and 105 % of control
[4]
  T/C: 97 % of control
dose: 128.0 mg/kg/injection, schedule: Q01DX009 (ip), vehicle: Klucel (hydroxypropylcellulose) (HPC)
  T/C: 91 % of control and 111 % of control
[5]
  T/C: 104 % of control and 112 % of control
dose: 256.0 mg/kg/injection, schedule: Q01DX009 (ip), vehicle: saline with Tween-80
  T/C: 121 % of control and 94 % of control

## C[n+]1c2ccccc2nc2c(N)cc(N)cc21
dose: 4.0 mg/kg/injection, schedule: Q01DX005 (ip), vehicle: suspension in saline
  T/C: 114 % of control and 97 % of control
dose: 8.0 mg/kg/injection, schedule: Q01DX005 (ip), vehicle: suspension in saline
  T/C: 94 % of control and 103 % of control
dose: 16.0 mg/kg/injection, schedule: Q01DX005 (ip), vehicle: suspension in saline
  T/C: 104 % of control and 106 % of control
dose: 32.0 mg/kg/injection, schedule: Q01DX005 (ip), vehicle: suspension in saline
  T/C: 102 % of control and 108 % of control

## CC(=O)N(C)c1ccc(Nc2cc(C)[nH]c3ccc4ncnc4c23)cc1
dose: 10.0 mg/kg/injection, schedule: Q01DX005 (ip), vehicle: saline
  T/C: 107 % of control
dose: 20.0 mg/kg/injection, schedule: Q01DX005 (ip), vehicle: saline
  T/C: 106 % of control
dose: 40.0 mg/kg/injection, schedule: Q01DX005 (ip), vehicle: saline
  T/C: 104 % of control

## Nc1nc2c(c(=O)[nH]1)N(C=O)C(CNc1ccc(C(=O)N[C@@H](CCC(=O)O)C(=O)O)cc1)CN2 (some centres undefined)
dose: 128.0 mg/kg/injection, schedule: Q01DX005 (ip), vehicle: suspension in saline
  T/C: 98 % of control
dose: 256.0 mg/kg/injection, schedule: Q01DX005 (ip), vehicle: suspension in saline
  T/C: 97 % of control
dose: 512.0 mg/kg/injection, schedule: Q01DX005 (ip), vehicle: suspension in saline
  T/C: 100 % of control

## O=C1c2ccccc2C(=O)c2c(NCCNCCO)ccc(NCCNCCO)c21
dose: 4.0 mg/kg/injection, schedule: Q01DX005 (ip), vehicle: saline with Tween-80
  T/C: 112 % of control
[6]
  T/C: 109 % of control
dose: 4.0 mg/kg/injection, schedule: Q01DX009 (ip), vehicle: saline
  T/C: 101 % of control and 105 % of control
dose: 8.0 mg/kg/injection, schedule: Q01DX005 (ip), vehicle: saline with Tween-80
  T/C: 104 % of control
[1]
  T/C: 118 % of control and 121 % of control
dose: 8.0 mg/kg/injection, schedule: Q01DX009 (ip), vehicle: saline
  T/C: 91 % of control and 111 % of control
dose: 16.0 mg/kg/injection, schedule: Q01DX005 (ip), vehicle: saline with Tween-80
  T/C: 114 % of control
[2]
  T/C: 119 % of control and 108 % of control
dose: 16.0 mg/kg/injection, schedule: Q01DX009 (ip), vehicle: saline
  T/C: 120 % of control and 112 % of control
dose: 32.0 mg/kg/injection, schedule: Q01DX005 (ip), vehicle: saline with Tween-80
  T/C: 96 % of control
[3]
  T/C: 87 % of control and 101 % of control
dose: 32.0 mg/kg/injection, schedule: Q01DX009 (ip), vehicle: saline
  T/C: 90 % of control
[4]
  T/C: 98 % of control

## CC[C@]1(O)C[C@H]2CN(CCc3c([nH]c4ccccc34)[C@@](C(=O)OC)(c3cc4c(cc3OC)N(C=O)[C@H]3[C@@](O)(C(=O)OC)[C@H](OC(C)=O)[C@]5(CC)C=CCN6CC[C@]43[C@@H]65)C2)C1
dose: 0.2 mg/kg/injection, schedule: Q04DX003 (ip), vehicle: water
  T/C: 111 % of control
dose: 0.4 mg/kg/injection, schedule: Q04DX003 (ip), vehicle: water
  T/C: 106 % of control
dose: 0.8 mg/kg/injection, schedule: Q04DX003 (ip), vehicle: water
  T/C: 116 % of control
dose: 1.6 mg/kg/injection, schedule: Q04DX003 (ip), vehicle: water
  T/C: 109 % of control
dose: 3.2 mg/kg/injection, schedule: Q04DX003 (ip), vehicle: water
  T/C: 106 % of control

## N=[N+]=CC(=O)CCC(NC(=O)C(CCC(=O)C=[N+]=N)NC(=O)CCC(N)C(=O)O)C(=O)O (centres undefined)
dose: 0.05 mg/kg/injection, schedule: Q01DX005 (ip), vehicle: Klucel (hydroxypropylcellulose) (HPC)
  T/C: 106 % of control
dose: 0.1 mg/kg/injection, schedule: Q01DX005 (ip), vehicle: Klucel (hydroxypropylcellulose) (HPC)
  T/C: 96 % of control and 104 % of control
dose: 0.2 mg/kg/injection, schedule: Q01DX005 (ip), vehicle: Klucel (hydroxypropylcellulose) (HPC)
  T/C: 100 % of control and 103 % of control
dose: 0.4 mg/kg/injection, schedule: Q01DX005 (ip), vehicle: Klucel (hydroxypropylcellulose) (HPC)
  T/C: 100 % of control and 105 % of control

## Nc1nncs1
dose: 64.0 mg/kg/injection, schedule: Q01DX005 (ip), vehicle: saline with Tween-80
  T/C: 119 % of control
dose: 128.0 mg/kg/injection, schedule: Q01DX005 (ip), vehicle: saline with Tween-80
  T/C: 160 % of control and 169 % of control
dose: 256.0 mg/kg/injection, schedule: Q01DX005 (ip), vehicle: saline with Tween-80
  T/C: 180 % of control

## CC(=O)OCC1C(=O)OCC1C(=O)N1Cc2cc3ccccc3nc2C1 (centres undefined)
[6]
  T/C: 101 % of control
[1]
  T/C: 103 % of control
[2]
  T/C: 96 % of control
[3]
  T/C: 107 % of control
[4]
  T/C: 102 % of control
[5]
  T/C: 96 % of control

## CC1(C)N=C(N)N=C(N)N1c1ccc(OCc2ccc(C(=O)Nc3cccc(S(=O)(=O)F)c3)cc2)c(Cl)c1
dose: 50.0 mg/kg/injection, schedule: Q04DX003 (ip), vehicle: saline
  T/C: 100 % of control
dose: 100.0 mg/kg/injection, schedule: Q04DX003 (ip), vehicle: saline
  T/C: 94 % of control
dose: 200.0 mg/kg/injection, schedule: Q04DX003 (ip), vehicle: saline
  T/C: 105 % of control
dose: 400.0 mg/kg/injection, schedule: Q04DX003 (ip), vehicle: saline
  T/C: 88 % of control

## CC(=O)N[C@@H](Cc1ccc(N(CCCl)CCCl)cc1)C(=O)ON1C(=O)CCC1=O
dose: 1.45 mg/kg/injection, schedule: Q03HX008 (ip), vehicle: saline
  T/C: 105 % of control
dose: 2.9 mg/kg/injection, schedule: Q03HX008 (ip), vehicle: saline
  T/C: 105 % of control
dose: 5.8 mg/kg/injection, schedule: Q03HX008 (ip), vehicle: saline
  T/C: 115 % of control

## CS(=O)(=O)CS(=O)(=O)OCCCl
[7]
  T/C: 110 % of control
[8]
  T/C: 114 % of control
[9]
  T/C: 164 % of control
[10]
  T/C: 203 % of control

## CC1(C)N=C(N)N=C(N)N1c1ccc(CCC(=O)Nc2ccc(S(=O)(=O)F)cc2)c(Cl)c1
[7]
  T/C: 100 % of control
[8]
  T/C: 111 % of control
[9]
  T/C: 105 % of control
[10]
  T/C: 105 % of control
